Values quoted from earlier work, collected in patent US6312728A, “Sustained release pharmaceutical preparation” (Cascade Development, Inc., priority 1999, dated 2001).
Like-named read-outs stand apart in the source and are kept apart here.

Tests used:
[1] = intravenous administration
[2] = in vivo
[3] = patients

| SMILES | serious adverse effects [1] | solubility in water | solubility in water (listed as free-phenytoin) | half-life [2] [h] | bioavailability following oral administration [3] |
| --- | --- | --- | --- | --- | --- |
| O=C1NC(=O)C(c2ccccc2)(c2ccccc2)N1 [phenytoin, 5,5-diphenyl-2,4-imidazolidinedione] | serious adverse effects, including cardiac arrhythmias and hypotensioni | poor solubility in water | practically insoluble in water | > 6 | great variations in bioavailability |
| O=C1NC(=O)C(c2ccccc2)(c2ccccc2)N1 [phenytoin sodium] | – | much more soluble | – | – | – |
